What was measured:
Type in all cases: in vivo, human
[1] = Pharmacokinetics and bioequivalence of butorphanol formulation, unit-dose vs multi-dose delivery device; conditions: 2 mg intranasal
Experimental: The experiments described in this example compared bioavailability and other parameters of a butorphanol formulation when administered using a unit-dose or multi-dose delivery device. The butorphanol formulation used for this example (STADOL NS®) contained 10 mg butorphanol tartrate, 6.5 mg sodium chloride, 1.0 mg citric acid, 0.20 mg benzethonium chloride in purified water with 1.2 mg sodium hydroxide and hydrochloric acid added to adjust the pH to 5.0.
The multi-dose sprayer purported by its label to administer 0.1 ml of liquid composition by metering upon activation by the user. The unit-dose spray device was a disposable intranasal applicator that is commercially available from Pfeiffer of America under the designation “Unitdose Second Generation.” Each of the Pfeiffer spray applicators was charged with sufficient liquid to deliver a 0.1 ml dose of the butorphanol formulation. The associated glass containers were filled using a pipette under clean conditions, sealed and assembled to the applicator. Each of the applicators was weighed prior to use and after use. Qualified medical personnel administered one dose into each nostril, after which the applicator was recovered for weighing. In the case of the unit-dose applicators, two devices were used for each patient for a total of 2 mg butorphanol tartrate.
Pharmacokinetics and bioequivalence (intrasubject variabilitiy) of the above-described butorphanol formulation upon administration using either the multi-dose or unit dose delivery device was assessed. The study was initiated with 16 subjects, 15 of which completed the study to provide data for this analysis; one subject dropped out after the second period. The following analysis considers both raw and normalized data, with the latter standardized with respect to the dose dispensed.
For both the raw and normalized data, log transformations are applied to the pharmacokinetic endpoints Cmax, AUC(last), and AUC(inf). A mixed effects model was considered for each parameter. Fixed effects for the factors sequence (4 levels), period 3 levels) and device (2 levels) were included in the model. Additionally, gender, as well as the interactions between gender and each of sequence, period and device was included as a factor in each model to determine whether separate analyses would be necessary for males and females. A total of seven models were considered: Tmax, log of raw Cmax values, log of normalized Cmax values, log transformed values for raw and normalized AUC(last), and log values for raw and normalized AUC(inf). […] In addition, the lack of significance of the effects included in each model indicate that there was no evidence of unequal carryover between the two delivery devices. […]

[2] = Pharmacokinetics of single doses of intranasal butorphanol tartrate, three-way crossover study; conditions: for F(%): relative to 2 mg i.v.
Experimental: Pharmacokinetic parameters of single doses of intranasal butorphanol tartrate using a single-dose, metered sprayer were evaluated in a 24 subject, three-way crossover study. The intranasal formulation contained aqueous buffered solution (pH 5) having 0.2% sodium citrate and 0.2% citric acid and 1 mg of butorphanol tartrate per ml. […] Each volunteer received three treatments: (1) 2 mg of i.v. butorphanol, (2) 2 mg of intranasal butorphanol, and (3) 1 mg of intranasal butorphanol. Each treatment was separated by a 6 day washout period.

[3] = Pharmacokinetics of single or multiple doses of intranasal butorphanol tartrate, two-way crossover study
Experimental: Pharmacokinetic parameters of single doses or multi doses of intranasal butorphanol tartrate using a single-dose, metered sprayer were evaluated in a 12 subject, two-way crossover study. The butorphanol formulation used was as described in Example 2. Each volunteer received either 1 or 2 mg of intranasal butorphanol as a single does (Treatment A) and 1 or 2 mg of intranasal butorphanol every six hours for seven doses (Treatment B). The butorphaonol composition was substantially as described in Example 2. During phase 1, 12 subjects received a single 1 mg dose. During phase 2, those who received the 1 mg single dose received 1 mg every six hours for seven doses. During phase 3, those who received the 2 mg single dose received 2 mg every six hours for seven doses. Serial blood samples were collected over 12 hours. Pharmacokinetic parameters are show in Table 5.

[4] = Multiple Dose 1 mg q 6 hr intranasal
[5] = Multiple Dose 2 mg q 6 hr intranasal

O=C(O)C(O)C(O)C(=O)O.Oc1ccc2c(c1)[C@@]13CCCC[C@@]1(O)[C@@H](C2)N(CC1CCC1)CC3 [butorphanol tartrate]
AUC0-t ([1]; STADOL NS multi-dose device): about 9329 pg*hr/ml | Cmax ([1]; STADOL NS multi-dose device): about 4027 pg/ml | Tmax ([1]; STADOL NS multi-dose device): about 0.245 hr | AUC ([1]; unit-dose device): about 10661 pg*hr/ml | AUC0-t ([2]; 1 mg intranasal): 4.88 ± 1.5 ng·h/mL | Cmax ([2]; 1 mg intranasal): 1.67 ± 0.7 ng/mL | F(%) ([2]; 1 mg intranasal): 80.2 ± 29.1% | AUC0-t ([2]; 2 mg i.v.): 12.59 ± 2.3 ng·h/mL | Cmax ([2]; 2 mg i.v.): 10.32 ± 2.7 ng/mL | AUC0-t ([2]; 2 mg intranasal): 9.51 ± 1.9 ng·h/mL | Cmax ([2]; 2 mg intranasal): 3.38 ± 1.3 ng/mL | F(%) ([2]; 2 mg intranasal): 77.6 ± 18.3% | AUC0-t [3, 4]: 7.21 ng·h/mL | Cmax [3, 4]: 1.55 ng/mL | Tmax range [3, 4]: (0.25-3.0) | AUC0-t [3, 5]: 15.75 ng·h/mL | Cmax [3, 5]: 3.80 ng/mL | Tmax range [3, 5]: (0.25-0.75) | AUC0-t ([3]; Single Dose 1 mg intranasal): 3.80 ng·h/mL | Cmax ([3]; Single Dose 1 mg intranasal): 1.46 ng/mL | Tmax range ([3]; Single Dose 1 mg intranasal): (0.17-1.02) | AUC0-t ([3]; Single Dose 2 mg intranasal): 9.55 ng·h/mL | Cmax ([3]; Single Dose 2 mg intranasal): 4.13 ng/mL | Tmax range ([3]; Single Dose 2 mg intranasal): (0.167-0.5)
